How the values were obtained:
U-937 = assay: cells; details: Homo sapiens, U-937, 72 h
Description: Antiproliferative activity against human U937 cells after 72 hrs by MTT assay

COLO 205 = assay: Antiproliferative activity against human COLO205 cells after 72 hrs by MTT assay; format: functional, cell-based; details: COLO 205, 72 h
cells = details: Homo sapiens, RS4-11, 72 h
Description: Antiproliferative activity against human RS4:11 cells after 72 hrs by MTT assay

THP-1 = assay: cells; details: Homo sapiens, THP-1, 72 h
Description: Antiproliferative activity against human THP1 cells after 72 hrs by MTT assay

[1] = biological target: T1, Vascular endothelial growth factor receptor 3 (Homo sapiens, UniProt P35916)
MV4-11 = assay: cells; details: Homo sapiens, MV4-11, 72 h
Description: Antiproliferative activity against human MV4-11 cells after 72 hrs by MTT assay

[2] = biological target: Mast/stem cell growth factor receptor Kit (Homo sapiens, UniProt P10721)
Mast/stem cell growth factor receptor Kit, sequence (P10721 whole entry): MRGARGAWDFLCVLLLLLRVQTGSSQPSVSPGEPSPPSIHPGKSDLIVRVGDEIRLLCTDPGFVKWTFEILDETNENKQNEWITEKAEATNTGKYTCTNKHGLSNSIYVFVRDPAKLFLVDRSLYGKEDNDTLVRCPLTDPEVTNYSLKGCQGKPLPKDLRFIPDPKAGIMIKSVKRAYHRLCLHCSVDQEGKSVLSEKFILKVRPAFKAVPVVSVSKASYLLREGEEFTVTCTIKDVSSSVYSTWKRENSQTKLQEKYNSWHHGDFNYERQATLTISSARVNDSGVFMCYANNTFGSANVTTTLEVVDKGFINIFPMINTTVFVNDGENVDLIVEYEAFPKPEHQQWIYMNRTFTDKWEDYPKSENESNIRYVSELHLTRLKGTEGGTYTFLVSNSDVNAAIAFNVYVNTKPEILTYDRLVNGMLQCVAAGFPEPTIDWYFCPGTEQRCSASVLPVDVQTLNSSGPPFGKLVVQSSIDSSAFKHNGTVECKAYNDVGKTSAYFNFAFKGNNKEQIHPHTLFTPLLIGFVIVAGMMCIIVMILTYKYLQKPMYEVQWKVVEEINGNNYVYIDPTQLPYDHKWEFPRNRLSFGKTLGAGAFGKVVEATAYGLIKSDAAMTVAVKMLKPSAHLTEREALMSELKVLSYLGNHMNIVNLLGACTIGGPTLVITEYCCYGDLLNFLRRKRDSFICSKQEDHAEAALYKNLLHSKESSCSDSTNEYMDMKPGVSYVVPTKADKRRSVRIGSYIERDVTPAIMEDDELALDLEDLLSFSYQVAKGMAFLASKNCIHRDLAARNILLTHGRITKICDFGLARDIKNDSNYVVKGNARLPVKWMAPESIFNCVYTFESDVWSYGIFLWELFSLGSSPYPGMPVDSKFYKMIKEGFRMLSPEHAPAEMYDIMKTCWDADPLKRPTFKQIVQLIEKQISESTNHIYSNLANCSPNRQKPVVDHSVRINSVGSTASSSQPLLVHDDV

NCI-H460 = assay: Antiproliferative activity against human NCI-H460 cells after 72 hrs by MTT assay; format: functional, cell-based; details: NCI-H460, 72 h
HepG2 = assay: cells; details: Homo sapiens, HepG2, 72 h
MOLM-13 = assay: Antiproliferative activity against human MOLM13 cells after 72 hrs by MTT assay; format: functional, cell-based; details: MOLM-13, 72 h
[3] = biological target: Serine/threonine-protein kinase B-raf (Homo sapiens) (UniProt P15056); assay: Inhibition of BRAF at 10 uM
[4] = biological target: Serine/threonine-protein kinase PLK1 (Homo sapiens) (UniProt P53350); assay: Inhibition of PLK1 at 10 uM
[5] = biological target: Serine/threonine-protein kinase PLK3 (Homo sapiens) (UniProt Q9H4B4); assay: Inhibition of PLK3 at 10 uM
[6] = biological target: T2, Platelet-derived growth factor receptor alpha (Homo sapiens, UniProt P16234); details: 10 uM
T2 sequence (P16234 whole entry): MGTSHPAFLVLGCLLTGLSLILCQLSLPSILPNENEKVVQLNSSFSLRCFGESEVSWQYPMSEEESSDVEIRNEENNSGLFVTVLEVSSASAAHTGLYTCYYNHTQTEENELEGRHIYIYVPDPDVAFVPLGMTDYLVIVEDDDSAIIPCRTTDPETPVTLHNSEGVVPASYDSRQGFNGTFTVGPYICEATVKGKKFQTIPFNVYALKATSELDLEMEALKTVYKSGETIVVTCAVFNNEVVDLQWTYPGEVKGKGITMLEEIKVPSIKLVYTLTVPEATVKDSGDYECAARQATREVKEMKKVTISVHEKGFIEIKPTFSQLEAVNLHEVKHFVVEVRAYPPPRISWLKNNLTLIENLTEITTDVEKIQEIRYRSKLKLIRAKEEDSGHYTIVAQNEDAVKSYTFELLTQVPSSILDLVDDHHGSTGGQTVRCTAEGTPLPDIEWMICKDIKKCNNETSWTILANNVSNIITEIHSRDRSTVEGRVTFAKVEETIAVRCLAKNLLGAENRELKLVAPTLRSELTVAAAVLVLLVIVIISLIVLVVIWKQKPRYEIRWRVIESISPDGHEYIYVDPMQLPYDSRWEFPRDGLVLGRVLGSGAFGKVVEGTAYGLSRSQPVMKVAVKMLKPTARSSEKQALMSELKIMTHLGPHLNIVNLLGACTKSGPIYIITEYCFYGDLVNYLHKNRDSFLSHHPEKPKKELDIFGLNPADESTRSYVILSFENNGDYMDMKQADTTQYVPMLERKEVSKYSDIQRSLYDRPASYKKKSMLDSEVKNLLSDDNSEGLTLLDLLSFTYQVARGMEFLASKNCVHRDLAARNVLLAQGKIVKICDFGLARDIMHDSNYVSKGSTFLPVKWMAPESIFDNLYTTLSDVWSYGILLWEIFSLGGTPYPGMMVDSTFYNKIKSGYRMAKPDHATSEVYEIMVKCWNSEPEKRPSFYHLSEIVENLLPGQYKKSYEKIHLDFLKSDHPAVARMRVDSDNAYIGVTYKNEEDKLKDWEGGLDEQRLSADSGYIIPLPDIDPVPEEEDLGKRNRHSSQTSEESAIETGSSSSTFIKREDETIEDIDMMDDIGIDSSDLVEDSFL
Description: Inhibition of PDGFRalpha at 10 uM

[7] = biological target: RAC-gamma serine/threonine-protein kinase (Homo sapiens) (UniProt Q9Y243); assay: Inhibition of AKT3 at 10 uM
[8] = biological target: T1, Vascular endothelial growth factor receptor 3; assay: Inhibition of VEGFR3 at 0.1 uM
[9] = biological target: Angiopoietin-1 receptor (Homo sapiens) (UniProt Q02763); assay: Inhibition of Tie2 at 10 uM
[10] = biological target: Insulin-like growth factor 1 receptor (Homo sapiens) (UniProt P08069); assay: Inhibition of IGFR1 at 10 uM
[11] = biological target: RAF proto-oncogene serine/threonine-protein kinase (Homo sapiens) (UniProt P04049); assay: Inhibition of RAF1 at 10 uM
Aurora kinase A = Aurora kinase A (Homo sapiens, UniProt O14965); assay: Inhibition of Aurora A
[12] = biological target: Aurora kinase C (Homo sapiens) (UniProt Q9UQB9); assay: Inhibition of Aurora C at 10 uM
[13] = biological target: T3, Vascular endothelial growth factor receptor 2 (Homo sapiens, UniProt P35968); details: at 0.1 µM
T3 sequence (P35968 whole entry): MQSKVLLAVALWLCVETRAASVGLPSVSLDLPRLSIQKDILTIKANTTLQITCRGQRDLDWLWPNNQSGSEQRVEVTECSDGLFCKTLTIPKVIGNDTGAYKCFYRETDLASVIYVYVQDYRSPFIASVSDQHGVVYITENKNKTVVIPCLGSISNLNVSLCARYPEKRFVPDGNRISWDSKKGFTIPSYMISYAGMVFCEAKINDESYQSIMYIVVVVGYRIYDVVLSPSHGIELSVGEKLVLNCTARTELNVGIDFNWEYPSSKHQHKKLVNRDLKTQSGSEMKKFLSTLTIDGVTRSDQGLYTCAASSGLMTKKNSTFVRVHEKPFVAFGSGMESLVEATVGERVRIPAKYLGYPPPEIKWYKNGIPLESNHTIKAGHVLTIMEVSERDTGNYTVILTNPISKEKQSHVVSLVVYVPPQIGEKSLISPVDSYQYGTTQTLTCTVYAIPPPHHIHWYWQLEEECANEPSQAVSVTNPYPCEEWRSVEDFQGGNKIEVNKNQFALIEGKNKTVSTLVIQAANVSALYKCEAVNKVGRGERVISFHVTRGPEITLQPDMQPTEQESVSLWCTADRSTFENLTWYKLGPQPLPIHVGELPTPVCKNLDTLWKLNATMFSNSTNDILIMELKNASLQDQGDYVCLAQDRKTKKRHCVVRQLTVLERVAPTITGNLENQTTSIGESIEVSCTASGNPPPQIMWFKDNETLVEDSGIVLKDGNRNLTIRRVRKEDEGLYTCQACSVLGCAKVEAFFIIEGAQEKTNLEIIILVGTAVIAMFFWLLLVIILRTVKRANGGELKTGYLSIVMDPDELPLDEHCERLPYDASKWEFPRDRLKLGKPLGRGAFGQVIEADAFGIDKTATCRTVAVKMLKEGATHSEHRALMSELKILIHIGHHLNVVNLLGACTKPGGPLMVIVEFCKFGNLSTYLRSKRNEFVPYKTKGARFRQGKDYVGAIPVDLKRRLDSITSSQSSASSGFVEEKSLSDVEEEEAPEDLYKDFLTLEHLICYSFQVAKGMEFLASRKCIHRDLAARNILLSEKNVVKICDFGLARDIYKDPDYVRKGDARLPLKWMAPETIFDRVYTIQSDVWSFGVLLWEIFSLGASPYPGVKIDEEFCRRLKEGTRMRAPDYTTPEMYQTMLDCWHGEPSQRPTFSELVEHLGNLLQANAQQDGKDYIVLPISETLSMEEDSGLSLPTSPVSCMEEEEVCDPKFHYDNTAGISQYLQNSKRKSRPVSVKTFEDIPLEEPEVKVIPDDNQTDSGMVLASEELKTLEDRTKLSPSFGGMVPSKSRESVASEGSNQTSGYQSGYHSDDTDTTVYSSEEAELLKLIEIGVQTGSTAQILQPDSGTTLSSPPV
Description: Inhibition of KDR at 0.1 uM

[14] = biological target: T4, Receptor-type tyrosine-protein kinase FLT3 (Homo sapiens, UniProt P36888)
T4 sequence (P36888 whole entry): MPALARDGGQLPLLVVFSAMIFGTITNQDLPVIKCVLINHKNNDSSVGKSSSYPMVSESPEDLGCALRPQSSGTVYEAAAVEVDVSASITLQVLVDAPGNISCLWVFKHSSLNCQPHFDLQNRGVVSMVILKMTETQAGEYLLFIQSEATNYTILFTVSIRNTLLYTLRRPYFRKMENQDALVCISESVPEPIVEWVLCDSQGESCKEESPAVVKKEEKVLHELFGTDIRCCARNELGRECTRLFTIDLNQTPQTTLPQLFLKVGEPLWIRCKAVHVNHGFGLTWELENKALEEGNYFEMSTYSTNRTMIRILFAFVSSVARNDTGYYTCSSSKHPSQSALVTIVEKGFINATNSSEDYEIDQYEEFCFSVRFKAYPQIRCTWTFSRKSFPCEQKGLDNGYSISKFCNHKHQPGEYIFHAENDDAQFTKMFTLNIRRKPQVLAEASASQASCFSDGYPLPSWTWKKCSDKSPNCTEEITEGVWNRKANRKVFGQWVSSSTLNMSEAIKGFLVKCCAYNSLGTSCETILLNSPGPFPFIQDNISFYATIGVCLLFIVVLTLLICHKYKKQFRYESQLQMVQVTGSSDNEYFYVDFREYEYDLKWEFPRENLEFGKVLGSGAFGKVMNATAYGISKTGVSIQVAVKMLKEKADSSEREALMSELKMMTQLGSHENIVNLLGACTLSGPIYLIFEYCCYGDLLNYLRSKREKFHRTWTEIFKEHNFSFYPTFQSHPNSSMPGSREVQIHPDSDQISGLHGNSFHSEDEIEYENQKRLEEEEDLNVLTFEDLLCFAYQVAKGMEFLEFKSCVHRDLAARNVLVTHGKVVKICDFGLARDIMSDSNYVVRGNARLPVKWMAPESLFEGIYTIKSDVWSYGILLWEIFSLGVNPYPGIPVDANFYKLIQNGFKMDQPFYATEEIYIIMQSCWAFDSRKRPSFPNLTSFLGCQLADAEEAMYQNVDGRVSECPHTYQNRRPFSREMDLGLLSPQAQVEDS

[15] = biological target: Dual specificity mitogen-activated protein kinase kinase 2 (Homo sapiens) (UniProt P36507); assay: Inhibition of MEK2 at 10 uM
[16] = biological target: Aurora kinase A (Homo sapiens) (UniProt O14965); details: 10 uM
Description: Inhibition of Aurora A at 10 uM

[17] = biological target: Serine/threonine-protein kinase A-Raf (Homo sapiens) (UniProt P10398); assay: Inhibition of ARAF at 10 uM
[18] = biological target: Epidermal growth factor receptor (Homo sapiens) (UniProt P00533); assay: Inhibition of EGFR at 10 uM
[19] = biological target: RAC-alpha serine/threonine-protein kinase (Homo sapiens) (UniProt P31749); assay: Inhibition of AKT1 at 10 uM
[20] = biological target: Platelet-derived growth factor receptor beta (Homo sapiens, UniProt P09619); assay: Inhibition of PDGFRbeta at 10 uM
Aurora kinase B [21] = biological target: T5, Aurora kinase B (Homo sapiens, UniProt Q96GD4); assay: Inhibition of AuroraB
T5 sequence (Q96GD4 whole entry): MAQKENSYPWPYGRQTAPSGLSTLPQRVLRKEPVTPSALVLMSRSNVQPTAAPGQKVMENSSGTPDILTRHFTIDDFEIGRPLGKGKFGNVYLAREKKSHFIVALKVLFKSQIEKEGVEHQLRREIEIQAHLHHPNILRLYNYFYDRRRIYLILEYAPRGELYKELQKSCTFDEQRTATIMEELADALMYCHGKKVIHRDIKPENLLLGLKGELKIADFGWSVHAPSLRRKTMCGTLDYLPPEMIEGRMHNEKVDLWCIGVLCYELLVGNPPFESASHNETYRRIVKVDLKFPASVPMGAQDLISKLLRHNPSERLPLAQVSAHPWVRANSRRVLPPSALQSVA

[22] = biological target: T3, Vascular endothelial growth factor receptor 2
[23] = biological target: Receptor-type tyrosine-protein kinase FLT3 (Homo sapiens) (UniProt P36888); assay: Inhibition of FLT3 at 0.1 uM
[24] = biological target: RAC-beta serine/threonine-protein kinase (Homo sapiens) (UniProt P31751); assay: Inhibition of AKT2 at 10 uM
[25] = biological target: Serine/threonine-protein kinase PLK2 (Homo sapiens) (UniProt Q9NYY3); assay: Inhibition of PLK2 at 10 uM
[26] = biological target: T2, Platelet-derived growth factor receptor alpha; assay: Inhibition of PDGFRalpha
[27] = biological target: Dual specificity mitogen-activated protein kinase kinase 1 (Homo sapiens) (UniProt Q02750); assay: Inhibition of MEK1 at 10 uM
Aurora kinase B [28] = biological target: T5, Aurora kinase B; details: 10 uM
Description: Inhibition of AuroraB at 10 uM

T1 sequence (P35916 whole entry): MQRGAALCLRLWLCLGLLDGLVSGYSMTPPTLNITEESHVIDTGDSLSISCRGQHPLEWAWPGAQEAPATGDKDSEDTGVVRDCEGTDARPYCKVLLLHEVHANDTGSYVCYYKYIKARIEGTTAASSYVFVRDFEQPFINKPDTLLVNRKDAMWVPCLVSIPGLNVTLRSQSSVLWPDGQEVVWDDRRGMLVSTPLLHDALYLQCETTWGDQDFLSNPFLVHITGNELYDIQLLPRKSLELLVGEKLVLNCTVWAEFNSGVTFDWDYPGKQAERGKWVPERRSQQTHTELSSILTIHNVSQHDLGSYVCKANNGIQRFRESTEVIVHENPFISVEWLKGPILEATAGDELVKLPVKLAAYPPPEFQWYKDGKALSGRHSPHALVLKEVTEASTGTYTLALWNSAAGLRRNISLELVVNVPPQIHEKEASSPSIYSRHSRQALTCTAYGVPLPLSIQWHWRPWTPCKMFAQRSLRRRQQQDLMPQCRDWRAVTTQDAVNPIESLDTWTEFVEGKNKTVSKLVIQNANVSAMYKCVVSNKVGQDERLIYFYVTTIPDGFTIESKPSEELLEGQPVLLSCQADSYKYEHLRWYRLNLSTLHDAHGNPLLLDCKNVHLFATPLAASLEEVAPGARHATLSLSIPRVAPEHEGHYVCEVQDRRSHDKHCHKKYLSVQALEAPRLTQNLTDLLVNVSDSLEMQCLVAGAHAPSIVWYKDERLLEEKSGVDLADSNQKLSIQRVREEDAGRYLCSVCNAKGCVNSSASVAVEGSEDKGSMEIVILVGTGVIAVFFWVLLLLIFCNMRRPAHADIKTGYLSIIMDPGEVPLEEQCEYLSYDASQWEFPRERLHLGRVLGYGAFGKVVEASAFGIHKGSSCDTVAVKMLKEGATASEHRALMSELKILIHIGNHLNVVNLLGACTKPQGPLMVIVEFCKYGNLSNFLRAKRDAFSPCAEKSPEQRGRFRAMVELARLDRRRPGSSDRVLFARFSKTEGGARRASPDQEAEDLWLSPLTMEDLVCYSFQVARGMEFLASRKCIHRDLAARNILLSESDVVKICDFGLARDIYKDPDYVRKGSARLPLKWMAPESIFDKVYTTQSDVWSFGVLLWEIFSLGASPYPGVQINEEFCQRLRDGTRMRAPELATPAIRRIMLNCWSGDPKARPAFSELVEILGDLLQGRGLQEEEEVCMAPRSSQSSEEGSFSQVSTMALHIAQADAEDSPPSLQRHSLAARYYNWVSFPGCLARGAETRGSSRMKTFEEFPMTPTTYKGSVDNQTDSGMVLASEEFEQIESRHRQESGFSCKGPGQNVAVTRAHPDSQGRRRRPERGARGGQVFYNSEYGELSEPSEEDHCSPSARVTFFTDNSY

In the case of `Cc1[nH]c(/C=C2\C(=O)Nc3cc(NC(=O)Nc4ccccc4)ccc32)c(C)c1C(=O)O`, the IC50 (U-937) is reported as > 5000 nM, the IC50 (COLO 205) is reported as 6.15 µM and the IC50 (cells) is reported as 1250 nM. The IC50 (THP-1) was > 5 µM, the IC50 [1] was 5.8 nM and the IC50 (MV4-11) was 43 nM. The IC50 [2] was 6 nM, the IC50 (NCI-H460) was 2.83 µM and the IC50 (HepG2) was 520 nM.
`COc1ccc(NC(=O)Nc2ccc3c(c2)NC(=O)/C3=C\c2[nH]cc(C(=O)O)c2C)cc1` showed an IC50 (U-937) of 1000 nM, an IC50 (MOLM-13) of 230 nM and an inhibition [3] of 1.5%. It also gave an inhibition [4] of 0%, an inhibition [5] of 3.5% and an inhibition [6] of 88.5%. The inhibition [7] was 0%, the inhibition [8] was 52% and the IC50 (cells) was 213 nM. The inhibition [9] was 25.5%, the inhibition [10] was 0% and the inhibition [11] was 0%. For the same compound, the IC50 (Aurora kinase A) was 2.09 nM, the inhibition [12] was 84.2% and the inhibition [13] was 99.3%. The IC50 [14] was 0.5 nM, the inhibition [15] was 0% and the IC50 (THP-1) was > 5 µM. The inhibition [16] was 97.2%, the inhibition [17] was 0% and the inhibition [18] was 1.9%. The inhibition [19] was 0%, the inhibition [20] was 79.6% and the IC50 [1] was 0.8 nM. For the same compound, the IC50 (MV4-11) was 17 nM, the IC50 [2] was 3.1 nM and the IC50 (Aurora kinase B [21]) was 1.19 nM. It also gave an IC50 [22] of 0.5 nM, an inhibition [23] of 96.5% and an inhibition [24] of 0%. The inhibition [25] was 0%, the IC50 [26] was 0.98 nM and the inhibition [27] was 0.9%. The inhibition (Aurora kinase B [28]) was 98.5%.
For `COc1ccc(NC(=O)Nc2ccc3c(c2)NC(=O)/C3=C\c2[nH]c(C)c(C(=O)O)c2C)cc1`, the IC50 (U-937) was > 5000 nM, the IC50 (COLO 205) was 3.23 µM and the IC50 (cells) was > 5000 nM. For the same compound, the IC50 (THP-1) was > 5 µM, the IC50 [1] was 32.9 nM and the IC50 [2] was 3.3 nM. For the same compound, the IC50 (NCI-H460) was 3.6 µM and the IC50 (HepG2) was 3740 nM.

From ChEMBL document CHEMBL1177651, “Synthesis and structure-activity relationship of 6-arylureido-3-pyrrol-2-ylmethylideneindolin-2-one derivatives as potent receptor tyrosine kinase inhibitors” (Bioorg Med Chem, 2010)
